Reference: PubChem BioAssay (NCI)
“And” between values parts separate entries of the source, which are not always exact repeats. Equal entries are not always repeated.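 Where inhibition never reached the appropriate level, the endpoint shown equals the highest concentration tested. Otherwise, values were interpolated linearly from a five-concentration, 48-hour dose response in 96-well plates. The concentration for 50% growth inhibition is given as GI50. The concentration for full growth arrest is given as TGI.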

Key:
Experiment in all cases: NCI-60 cell line screen, 48 h
SK-MEL-28 melanoma = system: SK-MEL-28 melanoma
SR leukemia = system: SR leukemia
IGROV1 ovarian = system: IGROV1 ovarian
T-47D breast = system: T-47D breast
SN12C renal = system: SN12C renal
COLO 205 colon = system: COLO 205 colon
M14 melanoma = system: M14 melanoma
CCRF-CEM leukemia = system: CCRF-CEM leukemia
SF-295 CNS = system: SF-295 CNS
SF-268 CNS = system: SF-268 CNS

Structure (SMILES) | GI50 (SK-MEL-28 melanoma) | TGI (SK-MEL-28 melanoma) | GI50 (SR leukemia) | TGI (SR leukemia) | GI50 (IGROV1 ovarian) | TGI (IGROV1 ovarian) | GI50 (T-47D breast) | TGI (T-47D breast) | GI50 (SN12C renal) | TGI (SN12C renal) | GI50 (COLO 205 colon) | TGI (COLO 205 colon) | GI50 (M14 melanoma) | TGI (M14 melanoma) | GI50 (CCRF-CEM leukemia) | TGI (CCRF-CEM leukemia) | GI50 (SF-295 CNS) | TGI (SF-295 CNS) | GI50 (SF-268 CNS) | TGI (SF-268 CNS)
Cc1cc(-c2ccco2)cc(C)c1/C=C/c1cncc(-c2nn[nH]n2)c1 | > 25000 nM | > 25 µM | > 25000 nM | > 25 µM | > 25000 nM | > 25 µM | > 25000 nM | > 25 µM | > 25000 nM | > 25 µM | > 25000 nM | > 25 µM | > 25000 nM | > 25 µM | > 25 µM | > 25 µM | > 25000 nM | > 25 µM | > 25000 nM | > 25 µM
CN1CC[C@]23c4c5ccc(O)c4OC2c2[nH]ncc2C[C@H]3[C@H]1C5 (some centres undefined) | – | > 100 µM | – | > 100 µM | – | > 100 µM | – | > 100 µM | – | > 100 µM | – | > 100 µM | – | > 100 µM | – | > 100 µM | – | > 100 µM | – | > 100 µM
COc1cccc(/C=C2/S/C(=N/Nc3nc(C)c(C(C)=O)s3)NC2=O)c1O | – | > 100 µM | – | > 100 µM | – | > 100 µM | – | 96.5 µM | – | > 100 µM | – | 64.9 µM | – | > 100 µM | – | 50.7 µM | – | > 100 µM | – | > 100 µM
COc1cccc(N2C(=O)C3CC(CC(C)(C)C)c4c([nH]c5ccccc45)C3C2=O)c1 (centres undefined) | – | > 10 µM | – | 4.2 µM | – | > 10 µM | – | > 10 µM | – | > 10 µM | – | > 10 µM | – | > 10 µM | – | > 10 µM | – | > 10 µM | – | > 10 µM
COC(=O)C1=Nc2ccc(F)cc2/C1=C/c1sc(=S)[nH]c1O | 1060 nM | > 83.5 µM | 47.6 nM | > 100 µM | 275 nM | 14.9 µM | 4410 nM | > 100 µM | 354 nM | > 26.3 µM | 311 nM | 1.24 µM | 54.3 nM | > 100 µM | 0.133 µM | > 100 µM | 125 nM | 13.2 µM | 575 nM | 29.9 µM
Cc1ccc(-c2nc(C(Cl)Cl)nc3cc(C)nn23)cc1 | – | – | 342 nM | > 100 µM | – | – | 2860 nM | > 100 µM | 5880 nM | > 100 µM | 1040 nM | 3.41 µM | – | – | 4.82 µM | > 100 µM | 2100 nM | 6.71 µM | 2690 nM | > 100 µM
CCN(CC)C(=O)CCCCCn1c2ccccc2c2c3c(c4c5ccccc5[nH]c4c21)C(=O)N(O)C3=O | 5380 nM | > 100 µM | 1560 nM | 13.6 µM | 2410 nM | 6.87 µM | 4120 nM | 52.1 µM | 4030 nM | > 100 µM | 1970 nM | 4.23 µM | 4490 nM | 39.3 µM | 3.07 µM | 21.9 µM | 6070 nM | 55.7 µM | 3970 nM | > 100 µM
CCC1=C(c2ccc(OC)cc2)CC[C@]2(CCNC2=O)[C@@H]1C | – | 74.1 µM | – | 76.6 µM | – | > 100 µM | – | > 91.1 µM | – | > 96.3 µM | – | 19.9 µM | – | 62.7 µM | – | 60.8 µM | – | > 100 µM | – | > 100 µM
Cc1cc2c3c(c1)CCCN3CCC2 | – | > 10 µM | – | > 10 µM | – | > 10 µM | – | > 10 µM | – | > 10 µM | – | > 10 µM | – | > 10 µM | – | > 10 µM | – | > 10 µM | – | > 10 µM
O=CC(O)C(O)C(OC1OC(CO)C(O)C(O)C1O)C(O)CO (centres undefined) (tested in a mixture with another compound) | – | > 100 µM | – | 33.1 µM | – | 71.9 µM | – | > 100 µM | – | > 100 µM | – | > 100 µM | – | > 100 µM | – | – | – | > 100 µM | – | > 100 µM
CC(C)C/C(=N\NC(=O)c1ccncc1)c1cc(Cl)ccc1O | 2610 nM | > 69.4 µM | 206 nM | 29 µM | 224 nM | 17.3 µM | 584 nM | 33.3 µM | 619 nM | > 52.5 µM | 354 nM | 14.4 µM | 627 nM | 13.3 µM | 0.0864 µM | > 58.5 µM | 256 nM | 13.2 µM | 399 nM | > 76.6 µM
O=C(/C=C/c1cccs1)c1ccc([N+](=O)[O-])cc1 | – | > 100 µM | – | > 100 µM | – | > 100 µM | – | > 100 µM | – | > 100 µM | – | > 100 µM | – | > 100 µM | – | > 100 µM | – | > 100 µM | – | > 100 µM
CCN(CC)Cc1cc(Nc2cc(C(F)(F)F)c(C#N)c3nc4ccccc4n23)ccc1O | 2690 nM | 17.4 µM | 3720 nM | > 100 µM | – | – | 452 nM | 3.65 µM | – | – | 1410 nM | 3.08 µM | 2730 nM | 13.9 µM | 2.79 µM | > 100 µM | 1200 nM | 3.81 µM | 2510 nM | 18.3 µM
N#Cc1cccc(C2C3=C(COC3=O)N(CCO)c3cc4c(cc32)CCC4)c1 (centres undefined) | 437 nM | > 50 µM | 48.6 nM | > 50 µM | 172 nM | > 43.8 µM | 271 nM | > 50 µM | 261 nM | > 50 µM | 146 nM | 1.28 µM | 83.2 nM | 0.293 µM | 0.187 µM | > 50 µM | 71.6 nM | > 50 µM | 368 nM | > 50 µM
Oc1ccc(-c2[nH]c3ccccc3c2-c2nc3ccccc3o2)cc1 | 4830 nM | 17.9 µM | 4780 nM | 25.7 µM | 3340 nM | 16.3 µM | 3080 nM | 15.4 µM | 4880 nM | 18.5 µM | 3540 nM | 12.6 µM | 3260 nM | 13.8 µM | 4.91 µM | 46.2 µM | 4480 nM | 19.4 µM | 2890 nM | 12.9 µM
COc1cc2c(cc1OC)C(SC)C(=O)N(Cc1cccc(OC)c1OC)CC2 (centres undefined) | – | > 42.3 µM | – | 24.1 µM | – | > 90.8 µM | – | 21.2 µM | – | > 100 µM | – | 16.9 µM | – | 26.5 µM | – | > 55.6 µM | – | > 43.6 µM | – | > 100 µM
O=C(Nc1cccc(-n2cc(-c3ccncc3)c(-c3ccc(O)c(Cl)c3)n2)c1)Nc1ccc(Cl)c(Cl)c1 | 1800 nM | 6.58 µM | 430 nM | 2.75 µM | 2350 nM | 6.78 µM | 1840 nM | 6.41 µM | 2720 nM | > 100 µM | 2500 nM | 6.23 µM | 1590 nM | 3.79 µM | 1.39 µM | 5.73 µM | 2290 nM | 7.27 µM | 2650 nM | 16.6 µM
O=C(O)Cn1ccc(=O)c2c([N+](=O)[O-])cccc21 | – | > 100 µM | – | > 100 µM | – | > 100 µM | – | > 100 µM | – | > 100 µM | – | > 100 µM | – | > 100 µM | – | > 100 µM | – | > 100 µM | – | > 100 µM
O=C(/C=C/c1ccc(Cl)cc1)c1ccc(Cl)s1 | – | > 100 µM | – | > 100 µM | – | > 100 µM | – | > 100 µM | – | > 100 µM | – | > 100 µM | – | > 100 µM | – | 83.7 µM | – | > 100 µM | – | > 100 µM
CCCCOCCOCCOC1=C(Cl)C(=O)c2c(O)ccc(O)c2C1=O | – | 1.41 µM | – | 0.117 µM | – | 2.78 µM | – | 2.52 µM | – | 2.96 µM | – | 0.756 µM | – | 0.317 µM | – | 0.555 µM | – | 3.13 µM | – | 2.11 µM
CON(C)C(=O)C(C)NC(=O)OC(C)(C)C (centres undefined) | – | > 100 µM | – | > 100 µM | – | > 100 µM | – | > 100 µM | – | > 100 µM | – | > 100 µM | – | > 100 µM | – | > 100 µM | – | > 100 µM | – | > 100 µM
N=C(N)c1ccc(OCCCCCOc2ccc(C(=N)N)cc2)cc1 | 5460 nM | 12.3 µM and 21.9 µM and 49 µM | 13300 nM and 13600 nM and > 100000 nM | 44.4 µM and 58.5 µM and > 100 µM | 10200 nM and 13000 nM and 35500 nM | > 50 µM and 27 µM and > 100 µM | 1140 nM | 13.3 µM and 37.7 µM and > 100 µM | 2020 nM | 34.2 µM and 25 µM and 24.7 µM | 2180 nM and 5190 nM and 11900 nM | 8.57 µM and 18.4 µM and 29.1 µM | 5630 nM | 17.2 µM and 31.8 µM and 31.9 µM | 23.7 µM and 11.1 µM and 45.1 µM | > 50 µM and 60.1 µM and > 100 µM | – | 19.7 µM and 21.3 µM and 77.1 µM | 4480 nM | 13.6 µM and 34.2 µM and 37.7 µM
O=C(Nc1ccc(Cl)c(C(F)(F)F)c1)C(=O)c1c(O)c2ccccc2oc1=O | – | > 100 µM | – | > 100 µM | – | > 100 µM | – | > 100 µM | – | > 100 µM | – | – | – | > 100 µM | – | > 100 µM | – | > 100 µM | – | > 100 µM
O=C1C2C(C(=O)N1CC[Se][Se]CCN1C(=O)C3C(C1=O)[C@H]1C=C[C@@H]3C1)[C@H]1C=C[C@@H]2C1 (some centres undefined) | 362 nM | 3.02 µM | 1100 nM | > 26.6 µM | 220 nM | 0.556 µM | 2090 nM | 5.42 µM | – | – | 2120 nM | 4.98 µM | 332 nM | 1.97 µM | 0.566 µM | 4.02 µM | 1110 nM | 2.42 µM | 271 nM | 0.76 µM
CCOC(=O)[C@@H]1C[C@@H]1c1ccc(O)c(O)c1 | – | > 100 µM | – | > 100 µM | – | > 100 µM | – | 51.7 µM | – | > 100 µM | – | > 100 µM | – | 25.2 µM | – | – | – | > 100 µM | – | > 100 µM
